Here are results for 35 compounds from US9670212B2, “Inhibitors of PI3K-delta and methods of their use and manufacture” (Exelixis, Inc., priority 2010, dated 2017).

The target of this assay is PI3K delta (Homo sapiens (Human), UniProt O00329). Put plainly: Luciferase-coupled chemiluminescence kinase assay (KinaseGlo, ATP consumption). The assay is classed as biochemical. The method, boiled down: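 Kinase, compound and ATP (at or below KM) reacted 2 h at ambient temperature; remaining ATP detected by KinaseGlo luciferase chemiluminescence as percent ATP consumed. 10-point dose-response, curves fitted to give IC50.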
PI3K delta, sequence (O00329 whole entry): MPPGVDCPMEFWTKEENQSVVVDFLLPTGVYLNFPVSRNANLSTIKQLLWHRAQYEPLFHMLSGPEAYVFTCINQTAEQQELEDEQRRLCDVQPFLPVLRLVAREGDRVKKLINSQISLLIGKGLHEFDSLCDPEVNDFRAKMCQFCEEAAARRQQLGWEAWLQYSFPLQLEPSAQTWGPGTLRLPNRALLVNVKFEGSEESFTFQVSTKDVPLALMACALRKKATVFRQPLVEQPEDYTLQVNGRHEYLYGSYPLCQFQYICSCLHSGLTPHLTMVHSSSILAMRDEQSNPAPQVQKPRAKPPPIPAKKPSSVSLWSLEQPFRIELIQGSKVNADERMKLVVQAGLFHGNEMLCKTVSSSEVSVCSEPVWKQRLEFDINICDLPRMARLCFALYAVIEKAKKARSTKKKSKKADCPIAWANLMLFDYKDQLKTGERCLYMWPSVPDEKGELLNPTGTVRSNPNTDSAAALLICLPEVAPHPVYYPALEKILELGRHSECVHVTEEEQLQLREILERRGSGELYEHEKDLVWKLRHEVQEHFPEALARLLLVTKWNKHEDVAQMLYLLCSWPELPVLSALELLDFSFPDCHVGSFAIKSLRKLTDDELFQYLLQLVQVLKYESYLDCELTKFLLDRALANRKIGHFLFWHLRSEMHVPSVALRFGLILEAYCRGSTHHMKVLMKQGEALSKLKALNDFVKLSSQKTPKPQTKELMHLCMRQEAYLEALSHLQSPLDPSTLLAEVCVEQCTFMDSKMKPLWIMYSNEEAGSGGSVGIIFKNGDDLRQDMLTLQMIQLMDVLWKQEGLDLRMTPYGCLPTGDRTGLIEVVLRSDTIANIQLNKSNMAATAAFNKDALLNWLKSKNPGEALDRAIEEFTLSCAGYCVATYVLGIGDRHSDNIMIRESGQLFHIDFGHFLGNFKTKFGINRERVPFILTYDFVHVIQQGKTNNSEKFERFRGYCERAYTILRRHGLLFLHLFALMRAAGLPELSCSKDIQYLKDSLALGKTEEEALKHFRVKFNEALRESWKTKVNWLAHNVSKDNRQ
PI3K delta, sequence (P27986 whole entry partner): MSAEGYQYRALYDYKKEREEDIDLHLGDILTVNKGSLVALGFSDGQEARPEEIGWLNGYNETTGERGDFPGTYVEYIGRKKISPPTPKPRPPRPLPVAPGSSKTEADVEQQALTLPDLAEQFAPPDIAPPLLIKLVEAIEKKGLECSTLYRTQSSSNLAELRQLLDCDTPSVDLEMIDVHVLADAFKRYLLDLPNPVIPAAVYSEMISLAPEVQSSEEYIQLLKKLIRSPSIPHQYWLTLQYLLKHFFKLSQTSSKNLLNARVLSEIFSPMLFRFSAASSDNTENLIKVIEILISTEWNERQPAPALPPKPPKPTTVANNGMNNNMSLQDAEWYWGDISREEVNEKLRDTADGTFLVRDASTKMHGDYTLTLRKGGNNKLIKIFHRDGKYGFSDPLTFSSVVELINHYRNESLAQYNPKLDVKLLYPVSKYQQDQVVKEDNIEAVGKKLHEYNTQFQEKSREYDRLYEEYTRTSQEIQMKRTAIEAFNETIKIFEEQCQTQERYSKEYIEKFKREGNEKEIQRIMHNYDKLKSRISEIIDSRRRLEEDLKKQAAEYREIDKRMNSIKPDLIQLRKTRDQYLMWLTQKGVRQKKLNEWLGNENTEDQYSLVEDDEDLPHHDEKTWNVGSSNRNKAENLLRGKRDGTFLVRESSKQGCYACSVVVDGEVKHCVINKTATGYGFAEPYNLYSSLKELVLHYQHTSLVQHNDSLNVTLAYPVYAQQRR
Compound `Cc1cccc2cc(CNC(=O)c3nccnc3N)c(N(C)CCc3ccccn3)nc12` [Compound 88, 3-amino-N-({8-methyl-2-[methyl(2-pyridin-2-ylethyl)amino]quinolin-3-yl}methyl)pyrazine-2-carboxamide] registered an IC50 of 500 to 1500 nM.

Regarding `Cc1cccc2cc(CNC(=O)c3nccnc3N)c(N(C)CCN(C)CC(=O)N(C)C)nc12` [Compound 89, 3-amino-N-({2-[(2-{[2-(dimethylamino)-2-oxoethyl](methyl)amino}ethyl)(methyl)amino]-8-methylquinolin-3-yl}methyl)pyrazine-2-carboxamide], the 50% inhibitory concentration (IC50) was less than 50 nM.

For `Cc1cccc2cc(CNC(=O)c3nccnc3N)c(N(C)CCN(C)c3cnccn3)nc12` [Compound 90, 3-amino-N-{[8-methyl-2-(methyl{2-[methyl(pyrazin-2-yl)amino]ethyl}amino)quinolin-3-yl]methyl}pyrazine-2-carboxamide], the concentration for half-maximal inhibition (IC50) fell in the range of 500 to 1500 nM. For `Nc1nccnc1C(=O)NCc1nc2ccccc2cc1-c1cscn1` [Compound 91, 3-amino-N-{[3-(1,3-thiazol-4-yl)quinolin-2-yl]methyl}pyrazine-2-carboxamide], the IC50 was 500 to 1500 nM.

The compound `CN(C)Cc1ccccc1-c1cc2ccccc2nc1CNC(=O)c1nccnc1N` [Compound 92, 3-amino-N-[(3-{2-[(dimethylamino)methyl]phenyl}quinolin-2-yl)methyl]pyrazine-2-carboxamide] yielded a concentration for half-maximal inhibition (IC50) of 50 to 250 nM. `Nc1nccnc1C(=O)NCc1nc2ccccc2cc1Br` [Compound 93, 3-amino-N-[(3-bromoquinolin-2-yl)methyl]pyrazine-2-carboxamide] registered an IC50 of 500 to 1500 nM. Then `Cc1cccc2cc(CNC(=O)c3nccnc3N)c(N(C)CCN(C)C(=O)Cn3nccn3)nc12` [Compound 94, 3-amino-N-{[8-methyl-2-(methyl{2-[methyl(2H-1,2,3-triazol-2-ylacetyl)amino]ethyl}amino)quinolin-3-yl]methyl}pyrazine-2-carboxamide], with 50 to 250 nM. Take `Cc1cccc2cc(CNC(=O)c3nccnc3N)c(NCc3cccnc3)nc12` [Compound 95, 3-amino-N-({8-methyl-2-[(pyridin-3-ylmethyl)amino]quinolin-3-yl}methyl)pyrazine-2-carboxamide]: the concentration for half-maximal inhibition (IC50) lay in the range of 500 to 1500 nM. Next, `Cc1cccc2cc(CNC(=O)c3nccnc3N)c(NCCc3ccccn3)nc12` [Compound 96, 3-amino-N-({8-methyl-2-[(2-pyridin-2-ylethyl)amino]quinolin-3-yl}methyl)pyrazine-2-carboxamide]: 500 to 1500 nM; `Cc1cccc2cc(CNC(=O)c3nccnc3N)c(NCCc3cccnc3)nc12` [Compound 97, 3-amino-N-({8-methyl-2-[(2-pyridin-3-ylethyl)amino]quinolin-3-yl}methyl)pyrazine-2-carboxamide]: 500 to 1500 nM. Then `Cc1cccc2cc(CNC(=O)c3nccnc3N)c(N(C)C3CCN(C)C3)nc12` (centres unmarked) [Compound 98, 3-amino-N-({8-methyl-2-[methyl(1-methylpyrrolidin-3-yl)amino]quinolin-3-yl}methyl)pyrazine-2-carboxamide], with 50 to 250 nM; and `Cc1cccc2cc(CNC(=O)c3nccnc3N)c(N(C)C3CCN(C)CC3)nc12` [Compound 99, 3-amino-N-({8-methyl-2-[methyl(1-methylpiperidin-4-yl)amino]quinolin-3-yl}methyl)pyrazine-2-carboxamide], with 50 to 250 nM. Turning to `Cc1cccc2cc(CNC(=O)c3nccnc3N)c(N(C)CCN(C)C(=O)Cn3ccnn3)nc12` [Compound 100, 3-amino-N-{[8-methyl-2-(methyl{2-[methyl(1H-1,2,3-triazol-1-ylacetyl)amino]ethyl}amino)quinolin-3-yl]methyl}pyrazine-2-carboxamide], the IC50 was less than 50 nM. Regarding `Cc1cccc2cc(CNC(=O)c3nccnc3N)c(N(C)CCN(C)S(C)(=O)=O)nc12` [Compound 101, 3-amino-N-{[8-methyl-2-(methyl{2-[methyl(methylsulfonyl)amino]ethyl}amino)quinolin-3-yl]methyl}pyrazine-2-carboxamide], the 50% inhibitory concentration (IC50) is 50 to 250 nM. With `Cc1cccc2cc(CNC(=O)c3nccnc3N)c(N(C)CCN(C)C(=O)[C@H]3CCCN3)nc12` [Compound 102, 3-amino-N-{[8-methyl-2-(methyl{2-[methyl(D-prolyl)amino]ethyl}amino)quinolin-3-yl]methyl}pyrazine-2-carboxamide], the half-inhibitory concentration (IC50) lay in the range of 50 to 250 nM.

For `COCCN(C)c1nc2c(C)cccc2cc1CNC(=O)c1nccnc1N` [Compound 104, 3-amino-N-[(8-methyl-2-{methyl[2-(methyloxy)ethyl]amino}quinolin-3-yl)methyl]pyrazine-2-carboxamide], the half-inhibitory concentration (IC50) was in the range of 500 to 1500 nM. Next, `Cc1ccccc1-c1cc2ccccc2nc1CNC(=O)c1ncc(N2CCOCC2)nc1N` [Compound 105, 3-amino-N-{[3-(2-methylphenyl)quinolin-2-yl]methyl}-5-morpholin-4-ylpyrazine-2-carboxamide]: 500 to 1500 nM. Then `Cc1ccccc1-c1cc2ccccc2nc1CNC(=O)c1ncc(Cl)nc1N` [Compound 107, 3-amino-5-chloro-N-{[3-(2-methylphenyl)quinolin-2-yl]methyl}pyrazine-2-carboxamide], with 500 to 1500 nM; and `Cc1ccccc1-c1cc2ccccc2nc1CNC(=O)c1cncnc1N` [Compound 108, 4-amino-N-{[3-(2-methylphenyl)quinolin-2-yl]methyl}pyrimidine-5-carboxamide], with 500 to 1500 nM. Then `Cc1cccc2cc(CNC(=O)c3nccnc3N)c(N(C)CCN(C)C(=O)CN3CCCC3)nc12` [Compound 109, 3-amino-N-{[8-methyl-2-(methyl{2-[methyl(pyrrolidin-1-ylacetyl)amino]ethyl}amino)quinolin-3-yl]methyl}pyrazine-2-carboxamide], with 50 to 250 nM.

The compound `Cc1cccc2cc(CNC(=O)c3nccnc3N)c(N(C)CCN(C)C(=O)c3cncn3C)nc12` [Compound 110, 3-amino-N-({8-methyl-2-[methyl(2-{methyl[(1-methyl-1H-imidazol-5-yl)carbonyl]amino}ethyl)amino]quinolin-3-yl}methyl)pyrazine-2-carboxamide] yielded a half-inhibitory concentration (IC50) of 50 to 250 nM.

Take `Cc1cccc2cc(CNC(=O)c3nccnc3N)c(-n3ccnc3)nc12` [Compound 111, 3-amino-N-{[2-(1H-imidazol-1-yl)-8-methylquinolin-3-yl]methyl}pyrazine-2-carboxamide]: the IC50 is 250 to 500 nM. Next, `Cc1cccc2cc(CNC(=O)c3nccnc3N)c(-n3cnc4ccccc43)nc12` [Compound 112, 3-amino-N-{[2-(1H-benzimidazol-1-yl)-8-methylquinolin-3-yl]methyl}pyrazine-2-carboxamide]: 500 to 1500 nM. As to `Cc1cccc2cc(CNC(=O)c3nccnc3N)c(N(C)CCN(C)C(=O)[C@@H]3CCCN3C)nc12` [Compound 113, 3-amino-N-{[8-methyl-2-(methyl{2-[methyl(1-methyl-L-prolyl)amino]ethyl}amino)quinolin-3-yl]methyl}pyrazine-2-carboxamide], the half-maximal inhibitory concentration (IC50) lay in the range of 50 to 250 nM. The compound `Cc1cccc2cc(CNC(=O)c3nccnc3N)c(N(C)CCN(C)C(=O)CN(C)C)nc12` [Compound 114, 3-amino-N-({2-[{2-[(N,N-dimethylglycyl)(methyl)amino]ethyl}(methyl)amino]-8-methylquinolin-3-yl}methyl)pyrazine-2-carboxamide] showed a concentration for half-maximal inhibition (IC50) of 50 to 250 nM. Take `Cc1cccc2cc(CNC(=O)c3nccnc3N)c(N(C)CCN(C)C(=O)CN)nc12` [Compound 115, 3-amino-N-({2-[{2-[glycyl(methyl)amino]ethyl}(methyl)amino]-8-methylquinolin-3-yl}methyl)pyrazine-2-carboxamide]: the 50% inhibitory concentration (IC50) is 50 to 250 nM. As for `CNCC(=O)N(C)CCN(C)c1nc2c(C)cccc2cc1CNC(=O)c1nccnc1N` [Compound 116, 3-amino-N-{[8-methyl-2-(methyl{2-[methyl(N-methylglycyl)amino]ethyl}amino)quinolin-3-yl]methyl}pyrazine-2-carboxamide], the IC50 lay in the range of 50 to 250 nM. `Cc1ccccc1-c1cc2ccccc2nc1C(C)n1nc(I)c2c(N)ncnc21` (centres unmarked) [Compound 117, 3-iodo-1-{1-[3-(2-methylphenyl)quinolin-2-yl]ethyl}-1H-pyrazolo[3,4-d]pyrimidin-4-amine] had an IC50 of less than 50 nM. Next, `Cc1ccccc1-c1cc2c(C)cccc2nc1CNC(=O)c1nccnc1N` [Compound 118, 3-amino-N-{[5-methyl-3-(2-methylphenyl)quinolin-2-yl]methyl}pyrazine-2-carboxamide]: 250 to 500 nM. Next, `Cc1ccccc1-c1cc2c(C)cccc2nc1Cn1nc(I)c2c(N)ncnc21` [Compound 119, 3-iodo-1-{[5-methyl-3-(2-methylphenyl)quinolin-2-yl]methyl}-1H-pyrazolo[3,4-d]pyrimidin-4-amine]: less than 50 nM; `Cc1ccccc1-c1cc2ccccc2cc1Cn1cnc2c(N)ncnc21` [Compound 120, 9-{[3-(2-methylphenyl)naphthalen-2-yl]methyl}-9H-purin-6-amine]: 500 to 1500 nM; `Cc1cccc2cc(CNC(=O)c3nccnc3N)c(N(C)CCO)nc12` [Compound 121, 3-amino-N-({2-[(2-hydroxyethyl)(methyl)amino]-8-methylquinolin-3-yl}methyl)pyrazine-2-carboxamide]: 50 to 250 nM. Compound `CNCCOc1nc2c(C)cccc2cc1CNC(=O)c1nccnc1N` [Compound 122, 3-amino-N-[(8-methyl-2-{[2-(methylamino)ethyl]oxy}quinolin-3-yl)methyl]pyrazine-2-carboxamide] displayed an IC50 of 500 to 1500 nM. Then `CC(=O)N1CCN(c2nc3c(C)cccc3cc2CNC(=O)c2nccnc2N)CC1` [Compound 124, N-{[2-(4-acetylpiperazin-1-yl)-8-methylquinolin-3-yl]methyl}-3-aminopyrazine-2-carboxamide], with 250 to 500 nM; and `Cc1cccc2cc(CNC(=O)c3nccnc3N)c(NCCO)nc12` [Compound 125, 3-amino-N-({2-[(2-hydroxyethyl)amino]-8-methylquinoin-3-yl}methyl)pyrazine-2-carboxamide], with 500 to 1500 nM.
